± gives the expanded uncertainty stated by the source.
Details: Liquid, Vibrating tube method

Cc1ccccc1 [toluene]
Details	mass density [kg/m3]
283.16 K, 1020 kPa	876.55 ± 0.61
283.16 K, 5010 kPa	879.36 ± 0.61
283.16 K, 10030 kPa	882.78 ± 0.61
283.16 K, 15050 kPa	886.11 ± 0.62
283.16 K, 20080 kPa	889.23 ± 0.62
283.16 K, 25060 kPa	892.35 ± 0.62
283.16 K, 30040 kPa	895.27 ± 0.63
283.16 K, 35080 kPa	898.24 ± 0.63
283.16 K, 40060 kPa	901.05 ± 0.64
283.16 K, 45050 kPa	903.77 ± 0.64
283.16 K, 50010 kPa	906.43 ± 0.64
283.16 K, 55060 kPa	909.09 ± 0.65
283.16 K, 60030 kPa	911.65 ± 0.65
283.16 K, 65050 kPa	914.15 ± 0.65
298.15 K, 1040 kPa	862.88 ± 0.61
298.15 K, 5040 kPa	865.93 ± 0.61
298.15 K, 10030 kPa	869.6 ± 0.61
298.15 K, 15050 kPa	873.21 ± 0.62
298.15 K, 20040 kPa	876.63 ± 0.62
298.15 K, 25050 kPa	879.93 ± 0.63
298.15 K, 30060 kPa	883.14 ± 0.63
298.15 K, 35020 kPa	886.25 ± 0.64
298.15 K, 40040 kPa	889.26 ± 0.64
298.15 K, 45070 kPa	892.2 ± 0.65
298.15 K, 50040 kPa	895.06 ± 0.65
298.15 K, 55040 kPa	897.86 ± 0.66
298.15 K, 60030 kPa	900.56 ± 0.66
298.15 K, 65020 kPa	903.2 ± 0.67
323.15 K, 1050 kPa	839.46 ± 0.61
323.15 K, 5050 kPa	843.04 ± 0.61
323.15 K, 10030 kPa	847.29 ± 0.62
323.15 K, 15010 kPa	851.38 ± 0.62
323.15 K, 20010 kPa	855.27 ± 0.63
323.15 K, 25060 kPa	859.05 ± 0.64
323.15 K, 30080 kPa	862.69 ± 0.64
323.15 K, 35020 kPa	866.13 ± 0.65
323.15 K, 40010 kPa	869.52 ± 0.66
323.15 K, 45060 kPa	872.84 ± 0.66
323.15 K, 50010 kPa	875.93 ± 0.67
323.15 K, 55010 kPa	879.01 ± 0.68
323.15 K, 60050 kPa	882.04 ± 0.68
323.15 K, 65030 kPa	884.91 ± 0.69
348.15 K, 1060 kPa	815.55 ± 0.61
348.15 K, 5070 kPa	819.75 ± 0.62
348.15 K, 10010 kPa	824.67 ± 0.62
348.15 K, 15030 kPa	829.43 ± 0.63
348.15 K, 20030 kPa	833.88 ± 0.64
348.15 K, 25020 kPa	838.2 ± 0.64
348.15 K, 30080 kPa	842.3 ± 0.65
348.15 K, 35050 kPa	846.21 ± 0.66
348.15 K, 40050 kPa	849.97 ± 0.67
348.15 K, 45070 kPa	853.63 ± 0.68
348.15 K, 50020 kPa	857.09 ± 0.69
348.15 K, 55060 kPa	860.49 ± 0.7
348.15 K, 60040 kPa	863.8 ± 0.7
348.15 K, 65070 kPa	867 ± 0.71
373.15 K, 1050 kPa	790.86 ± 0.61
373.15 K, 5020 kPa	795.87 ± 0.62
373.15 K, 10040 kPa	801.74 ± 0.63
373.15 K, 15040 kPa	807.26 ± 0.63
373.15 K, 20030 kPa	812.38 ± 0.64
373.15 K, 25080 kPa	817.35 ± 0.65
373.15 K, 30070 kPa	821.93 ± 0.66
373.15 K, 35040 kPa	826.36 ± 0.68
373.15 K, 40040 kPa	830.59 ± 0.69
373.15 K, 45030 kPa	834.57 ± 0.7
373.15 K, 50040 kPa	838.5 ± 0.71
373.15 K, 55040 kPa	842.23 ± 0.72
373.15 K, 60010 kPa	845.81 ± 0.73
398.15 K, 1070 kPa	765.25 ± 0.62
398.15 K, 5030 kPa	771.26 ± 0.62
398.15 K, 10040 kPa	778.22 ± 0.63
398.15 K, 15080 kPa	784.74 ± 0.64
398.15 K, 20010 kPa	790.62 ± 0.65
398.15 K, 25050 kPa	796.25 ± 0.67
398.15 K, 30040 kPa	801.49 ± 0.68
398.15 K, 35040 kPa	806.48 ± 0.69
398.15 K, 40020 kPa	811.17 ± 0.7
398.15 K, 45040 kPa	815.71 ± 0.72
398.15 K, 50020 kPa	819.96 ± 0.73
398.15 K, 55040 kPa	824.15 ± 0.74
398.15 K, 60020 kPa	828.11 ± 0.75
398.15 K, 65080 kPa	831.99 ± 0.77
423.15 K, 1050 kPa	738.06 ± 0.62
423.15 K, 5030 kPa	745.45 ± 0.63
423.15 K, 10060 kPa	753.93 ± 0.64
423.15 K, 15030 kPa	761.54 ± 0.65
423.15 K, 20000 kPa	768.41 ± 0.66
423.15 K, 25020 kPa	774.89 ± 0.68
423.15 K, 30020 kPa	780.87 ± 0.69
423.15 K, 35060 kPa	786.56 ± 0.71
423.15 K, 40020 kPa	791.82 ± 0.72
423.15 K, 45040 kPa	796.87 ± 0.74
423.15 K, 50040 kPa	801.63 ± 0.75
423.15 K, 55060 kPa	806.24 ± 0.77
423.15 K, 60040 kPa	810.55 ± 0.78
423.15 K, 65050 kPa	814.77 ± 0.8
448.15 K, 1040 kPa	708.96 ± 0.63
448.15 K, 5070 kPa	718.48 ± 0.63
448.15 K, 10040 kPa	728.71 ± 0.65
448.15 K, 15070 kPa	737.86 ± 0.66
448.15 K, 20050 kPa	745.94 ± 0.68
448.15 K, 25050 kPa	753.39 ± 0.69
448.15 K, 30040 kPa	760.21 ± 0.71
448.15 K, 35040 kPa	766.59 ± 0.73
448.15 K, 40020 kPa	772.48 ± 0.75
448.15 K, 45030 kPa	778.13 ± 0.76
448.15 K, 50030 kPa	783.39 ± 0.78
448.15 K, 55060 kPa	788.44 ± 0.8
448.15 K, 60010 kPa	793.17 ± 0.81
448.15 K, 65060 kPa	797.83 ± 0.83
473.15 K, 1030 kPa	676.8 ± 0.63
473.15 K, 5050 kPa	689.34 ± 0.64
473.15 K, 10050 kPa	702.19 ± 0.66
473.15 K, 15060 kPa	713.2 ± 0.68
473.15 K, 20020 kPa	722.73 ± 0.69
473.15 K, 25040 kPa	731.39 ± 0.71
473.15 K, 30010 kPa	739.18 ± 0.73
473.15 K, 35040 kPa	746.42 ± 0.75
473.15 K, 40050 kPa	753.09 ± 0.77
473.15 K, 45060 kPa	759.38 ± 0.79
473.15 K, 50050 kPa	765.18 ± 0.81
473.15 K, 55020 kPa	770.69 ± 0.83
473.15 K, 60030 kPa	775.95 ± 0.85
473.15 K, 65020 kPa	780.92 ± 0.87
